According to patent US10588985B2, “Compositions and methods relating to RAD6 inhibition” (Wayne State University, priority 2015, dated 2020):

Legend:
[1] = test system: SUM1315 triple negative breast cancer cell derived tumors; test: Orthotopic tumor growth assay; type: in vivo, mice; conditions: SUM1315 xenografts, intraperitoneal injection at 5 mg/kg
Experimental: MDA-MB-468 or SUM1315 triple negative breast cancer cells (1×10^6 cells suspended in 0.1 ml Matrigel) were injected subcutaneously into the fatpads of fourth and fifth inguinal mammary glands of female nude mice. […] Control vehicle or SMI #9 free drug was administered intratumorally whereas blank-GNP and SMI #9-GNP were administered intraperitoneally. Treatments were given every fourth day. Tumor volumes and body weights were measured twice a week and mice were monitored for weight loss, gastrointestinal distress, activity, body posture, and food/water intake. Mice were sacrificed at 35-44 days postimplantation. Tumors were harvested and weighed.

HCC1937 cells = test: Mitochondrial membrane potential, JC-1 assay; type: cell-based; conditions: overnight, 1 μM
Experimental: (§1) The impact of free SMI #9 or SMI #9-GNP on mitochondrial membrane potential (Δψm) on SUM1315 and HCC1937 TNBC cells was assessed using JC-1 (Mitocapture, Biovision, Mountainview, Calif.), a potentiometric green fluorescent dye that shifts to red fluorescence within mitochondria with a normal negative […]. Briefly, cells were incubated with the MitoCapture reagent for 15 min at 37° C. and imaged by fluorescence microscopy as described in Shekhar M P et al., Cancer Biol Ther 2008; 7:1774-82.
(§2) The percent of cells showing punctate red fluorescence or diffuse green fluorescence were scored by counting three-five fields of 50-100 cells in each field. Each experiment was repeated at least three times and results expressed as mean±S.E. Statistical significance of differences was determined by Student's t test.

SUM1315 cells = test: Mitochondrial membrane potential, JC-1 assay; type: cell-based
Experimental: as §1, §2

MDA-MB-231 TNBC cells = test: Cell survival assay (MTT or trypan blue); conditions: Homo sapiens; MDA-MB-231 cells, 72 hours; for SMI #9-GNP based on the concentration of SMI #9
Experimental: (§3) MDA-MB-231, SUM-1315, MDA-MB-468, and HCC1937 TNBC cells (ATCC) were maintained in Dulbecco's Modified Eagle's Medium (DMEM)/F-12 supplemented with 5% fetal bovine serum. Nontransformed MCF10A human breast cells were maintained in DMEM/F12 supplemented with 5% horse serum, 20 ng/ml epidermal growth factor, 10 μg/ml insulin, 0.5 μg/ml hydrocortisone and 0.10 μg/ml cholera toxin. Sensitivity to SMI #9-GNP was assessed by trypan blue staining or MTT colorimetric assay. Briefly, cells were seeded in 96-well plates at a density of 5-7×10^3 cells per well and allowed to attach overnight. Cells were treated with free SMI #9, SMI #9-GNP, or blank-GNP at various concentrations in triplicates for 72 hours. In some cases, treatments included various doses of cisplatin singly or in combination with SMI #9-GNP. On the final day, medium was replaced with drug free medium, incubated with MTT at 37° C. for 2-3 hours. The medium and MTT were removed, and the MTT-formazan crystals dissolved in 200 μl of 0.04 N HCl/isopropanol, and absorbance measured at 570 nm using the Synergy 2 multi-well plate reader. Alternately, cultures were trypsinized and cell viability determined by trypan blue exclusion using the Biorad TC10 automatic cell counter. At least two to three independent experiments were performed for each cell line.

SUM1315 TNBC cells = test: Cell survival assay (MTT or trypan blue); conditions: 72 hours, for SMI #9-GNP based on the concentration of SMI #9
Experimental: as §3

in vivo = test: in vivo; design: species or system mice; conditions: mouse, iv, 5 mg/kg
Experimental: To determine release of conjugated drugs and metabolic stability of GNP conjugates, mice were given a single i.v. injection of SMI #9-GNP at 5 mg/kg body wt. Blood samples were collected at 0, 5 min, 15 min, 30 min, 1 h, 2 h, 4 h, 8 h, and 24 h post-injection. Similarly, to assess the stability of SMI #9 as a free drug, a single i.v. injection of SMI #9 at 5 mg/kg was injected and blood samples collected. Concentrations of SMI #9 in plasma were determined by tandem LC-MS/MS and non-compartmental analysis with WinNonlin v5.2 (Pharsight).

[2] = test system: LC3-I/LC3-II in MDA-MB-231 cells; test: Western blot of LC3-I/II; type: cell-based; conditions: 24 hours
Experimental: (§4) Breast cancer cells treated with vehicle, free SMI #9, blank- or SMI #9-GNP (1-5 μM) for 24-96 hours were lysed, and aliquots of lysates containing 25 μg of protein were subjected to SDS-PAGE and western blot analysis of PARP-1 (Cell Signaling), Rad6, LC3-I/II (Cell Signaling), and […] (Sigma). To determine LC3 subcellular localization, control or SMI #9-GNP treated cells were fixed with methanol:acetone (1:1, v/v) and stained with anti-LC3 antibody. Slides were incubated with FITC-conjugated secondary antibody, counterstained with DAPI and analyzed by fluorescence microscopy.

[3] = test system: LC3-I/LC3-II in SUM1315 cells; test: Western blot of LC3-I/II; type: cell-based; conditions: 24 h
Experimental: as §4

[4] = test system: MDA-MB-468 or SUM1315 triple negative breast cancer cell derived tumors; test: Orthotopic tumor growth assay, tumor line not given; type: in vivo; conditions: female nude mice, 1.5 mg/kg intratumorally every fourth day
Experimental: MDA-MB-468 or SUM1315 triple negative breast cancer cells (1×10^6 cells suspended in 0.1 ml Matrigel) were injected subcutaneously into the fatpads of fourth and fifth inguinal mammary glands of female nude mice. Mice were randomized and treatments with SMI #9-GNP (0.285 mg/kg body wt), SMI #9 free drug (1.5 mg/kg body wt.), blank-GNP (volumes equivalent to SMI #9-GNP), or vehicle control were initiated upon detection of palpable lesions. Control vehicle or SMI #9 free drug was administered intratumorally whereas blank-GNP and SMI #9-GNP were administered intraperitoneally. Treatments were given every fourth day. Tumor volumes and body weights were measured twice a week and mice were monitored for weight loss, gastrointestinal distress, activity, body posture, and food/water intake. Mice were sacrificed at 35-44 days postimplantation. Tumors were harvested and weighed.

PARP-1 in TNBC cells = test: Western blot of PARP-1 steady-state levels; type: cell-based; conditions: TNBC cell lines, 24 hours
Experimental: as §4

[5] = test system: nontransformed MCF10A human breast cells; test: Cell survival assay (MTT or trypan blue); type: cell-based; conditions: 72 hours
Experimental: as §3

MDA-MB-468 TNBC cells = test: Cell survival assay (MTT or trypan blue); type: cell-based; conditions: Homo sapiens; MDA-MB-468 cells, 72 hours
Experimental: as §3

HCC1937 TNBC cells = test: Cell survival assay (MTT or trypan blue); type: cell-based; conditions: Homo sapiens, 72 hours
Experimental: as §3

Nc1nc(COC(=O)c2ccc([N+](=O)[O-])cc2)nc(Nc2ccccc2)n1 [SMI #9]
tumor growth [1]: no significant change in tumor growth | JC-1 punctate red fluorescence (HCC1937 cells): reduced the punctate red fluorescence staining | mitochondrial integrities (SUM1315 cells): similarly and dramatically compromised | JC-1 punctate red fluorescence (SUM1315 cells; overnight, 1 μM): reduced the punctate red fluorescence staining | GI50 (MDA-MB-231 TNBC cells): 5 µM | GI50 (SUM1315 TNBC cells): 6 µM | Cmax (in vivo): 409 nM | Tmax (in vivo): ~5 min | LC3-I and LC3-II levels [2]: downregulated both LC3-I and LC3-II | changes in LC3-I processing [3]: not readily apparent | tumor growth [4]: tumor growth inhibition compared to controls | PARP-1 processing / steady-state levels (PARP-1 in TNBC cells): stabilization/hyperactivation of PARP-1 | sensitivity (growth inhibition) [5]: unaffected | GI50 (MDA-MB-468 TNBC cells): 3000 nM | GI50 (HCC1937 TNBC cells): 1800 nM
